Measured values from patent US20080090728A1, “Method for Improving Plant Growth” (BAYER CROPSCIENCE AG, priority 2004, published 2008).

Tests used:
[1] = tested on: Eucalyptus seedlings (E. globulus); assay: Field trial, height of treated Eucalyptus seedlings (growth effect); type: in vivo; details: for Average height (cm): E. globulus seedlings
Excerpt: (§1) A synergistic effect is always present when the growth effect of the combinations according to the invention exceed the total of the activities of the active compounds when applied individually. The expected activity for a given combination of two active compounds can be calculated as follows (cf. Colby, S.R., “Calculating Synergistic and Antagonistic Responses of Herbicide Combinations”, Weeds 15, (1967), 20-22): If • X is the growth effect when applying one compound selected from the class of agonists and antagonists of the nicotinic acetylcholine receptors at an application rate of m g/ha, • Y is the growth effect when applying fertilizer at an application rate of n g/ha and • E is the efficacy when applying the combination of A and B at an application rate of m and n g/ha, then [formula] The efficacy is calculated in %. 0% is an efficacy which corresponds to that of the control. If the actual growth effect exceeds the calculated value, then the activity of the combination is super additive, i.e. a synergistic effect exists. In this case, the efficacy which was actually observed must be greater than the value for the expected efficacy (E) calculated from the abovementioned formula. The trial was established using a Latin square design (4 treatments with 4 replications each) with 49 ligneous trees per plot for a total of 784 trees in the trial. Trees: Eucalyptus seedlings (E. globulus) The four treatments used were 1) control (nil treatment) 2) fertilizer only 3) insecticide (i.e. imidacloprid) only 4) insecticide (i.e. imidacloprid) plus fertilizer Bonitation of insect infestation and measurement of the height of the treated trees was done 7 months and 12 months after the trial has been started (start of trial: August 2003, bonitations: March 2004 and August 2004) All results are statistically evaluated having a significance level of 5% . Besides the mean value comparison the Fisher's PLSD test has been applied.

[2] = tested on: insect infestation; assay: Field trial, bonitation of insect infestation (defoliation by insect damage) on Eucalyptus seedlings; type: in vivo
Excerpt: as §1

[3] = Bonitation August 2004, 12 months after start of trial
[4] = Bonitation March 2004, 7 months after start of trial

O=[N+]([O-])NC1=NCCN1Cc1ccc(Cl)nc1 [imidacloprid only, Imidacloprid]
Height of tree (% of control) [1, 3]: 104 % of control | Average height (cm) [1, 3]: 125 cm | Height of tree (% of control) [1, 4]: 115 % of control | Average height (cm) [1, 4]: 86 cm | Average defoliation by insect damage (%) [2, 3]: 60% | Efficacy according to Abbott (%) [2, 3]: 40% | Average defoliation by insect damage (%) [2, 4]: 18% | Efficacy according to Abbott (%) [2, 4]: 71%
